Assay results: patent US11427615B2, “Peptide compound and application thereof, and composition containing peptide compound” (XDCEXPLORER (SHANGHAI) CO., LTD., priority 2017, dated 2022)
Non-standard residues stand in square brackets, D forms with d. Residues, ends and D or L forms follow the SMILES beside them. *: point of attachment. X5 = CCCCCCCCCCCC(=O)NCCOCCOCCOCCOCCOCCSSCCCC(=O)*; dPhe(2,4-Cl2) = N[C@H](Cc1ccc(Cl)cc1Cl)C(=O)O; C18 diacid = O=C(O)CCCCCCCCCCCCCCCCC(=O)*; Oic = O=C(O)[C@@H]1C[C@@H]2CCCC[C@@H]2N1; PEG8 = NCCOCCOCCOCCOCCOCCOCCOCCOCCC(=O)O; Pro(4,4-F2) = O=C(O)[C@@H]1CC(F)(F)CN1; dAla(2-furyl) = N[C@H](Cc1ccco1)C(=O)O; Arg(Me) = CNC(=N)NCCC[C@H](N)C(=O)O; Palmitoyl = CCCCCCCCCCCCCCCC(=O)*; Hyp = O=C(O)[C@@H]1C[C@@H](O)CN1; AllylGly = C=CC[C@H](N)C(=O)O; PEG4 = NCCOCCOCCOCCOCCC(=O)O; Lauroyl = CCCCCCCCCCCC(=O)*; Pip = O=C(O)[C@@H]1CCCCN1; Ac6c = NC1(C(=O)O)CCCCC1; AEEA = NCCOCCOCC(=O)O; azaGly = NNC(=O)O

Tests used:
[1] = Plasma stability, LC-MS/MS; format: in vitro ADME; conditions: rat plasma, 37° C., final concentration 500 ng/ml, time points 0 minutes, 1, 2 and 4 hours; calculated half-life; read-out: Rat plasma (T½ (h)) (converted)
Procedure: Effect Embodiment 2 Experimental Data on Plasma Stability of Some Compounds
1. Preparation of 50 mM Phosphate Buffer:
The 5.750 g Na2HPO4, 1.141 g NaH2PO4. and 4.095 g NaCl (Shanghai Titan) weighed was dissolved in 1000 mL ultrapure water and the pH was adjusted to 7.4 to give 50 mM phosphate buffer containing 70 mM NaCl. The prepared phosphoric acid buffer solution was stored in the refrigerator at 4° C. and was valid for one week.
2. Preparation of compound stock solution:
1). 5 mg/mL of test compound: 5 mg of compound was weighted and dissolved in 1 mL of DMSO.
2). 20 mM control: 2.728 mg of Fuka was dissolved in 0.5 mL of DMSO. 3.878 mg of benzalkonium bromide was dissolved in 0.5 mL of DMSO (Amresco).
3. Preparation of experimental plasma:
The frozen plasma (human: Shanghai wise chemistry; Rats and mice: Shanghai Sciple-Bikai; Dogs and monkeys: Suzhou Xishan Zhongke) were taken out of the −80° C. refrigerator, immediately placed in a 37° C. water bath, slightly shaken to melt it, then the thawed plasma was poured into a centrifuge tube, centrifuged at 3000 rpm for 8 min, and the supernatant was taken for experiments. The pH value of plasma was detected by a pH Meter & Sensor (METTLER TOLEDO). Only plasma with a pH value between 7.4 and 8 was used in the experiment. The plasma was placed on an ice bath for later use.
4. Preparation of administration solution:
1). 125 µg/ml test compound solution: 5 μL of 5 mg/mL test compound (see step 2) was added into 195 μL DMSO; 500 μM control solution: 20 mM control stock solution (see step 2) was added to 195 μL DMSO.
2). 0.5% BSA phosphate buffer solution: 0.05 g BSA was added to 10 mL phosphate buffer solution (see step 1);
3). 5 µg/ml of test compound administration solution: 40 μL of 125 μg/mL of test compound solution was added into 960 μL 0.5% BSA phosphate buffer solution, stirred and mixed evenly, and the administration solution was preheated in a 37° C. water bath for 5 minutes.
20 μM reference substance administration solution: 40 μL of 500 μM reference substance administration solution was added into 960 μL 0.5% BSA phosphate buffer solution, stirred and mixed evenly, and the administration solution was preheated in a 37° C. water bath for 5 minutes.
5. 10 μL of 5 μg/mL of the test compound and 20 μM of the control substance administration solution were respectively added to the wells set at different time points (0 minutes, 1 hour, 2 hours and 4 hours) on the 96-well plate, and the number of duplicate samples was 3.
6. 500 μL of ACN (IS) containing 5% FA was added to the well set at 0 minute hour, then 90 μL of plasma was added, after mixing, sealing film was pasted and placed at 4° C. (number of duplicate samples was 3).
7. 90 μL of plasma was added to the wells with set time points of 1 hour, 2 hours and 4 hours respectively, the number of duplicate samples was 3, and timing was started (the final concentration of the test compound was 500 ng/ml; The control was 2 μM).
9. All samples (0 minutes, 1 hour, 2 hours and 4 hours) at different time points on a 96-well plate were shaken for 10 minutes at 600 rpm/min on an oscillator (MTS 2/4, IKA), and then the samples were centrifuged for 15 minutes at 5594×g in a centrifuge (Multifuge×3R, thermo Fisher).
10. 150 μL of supernatant was taken from the centrifuged sample and sent to LC-MS/MS for analysis (conventional polypeptide LC-MS/MS analysis method).

[2] = target: T1, human kiss1 receptor (GPR54) (Homo sapiens, UniProt Q969F8); assay: Kiss1 receptor (GPR54) binding activity of agonists, FRET detection in NFAT-bla CHO-K1 cells; format: cell-based; conditions: GPR54; measured according to the method of effect Embodiment 1; preliminary data; read-out: Preliminary measurement data (GPR54) EC50
T1 construct: host or cells: NFAT-bla CHO-K1 cells (Chinese hamster ovary), purchased recombinant cell line
T1 sequence (Q969F8 whole entry): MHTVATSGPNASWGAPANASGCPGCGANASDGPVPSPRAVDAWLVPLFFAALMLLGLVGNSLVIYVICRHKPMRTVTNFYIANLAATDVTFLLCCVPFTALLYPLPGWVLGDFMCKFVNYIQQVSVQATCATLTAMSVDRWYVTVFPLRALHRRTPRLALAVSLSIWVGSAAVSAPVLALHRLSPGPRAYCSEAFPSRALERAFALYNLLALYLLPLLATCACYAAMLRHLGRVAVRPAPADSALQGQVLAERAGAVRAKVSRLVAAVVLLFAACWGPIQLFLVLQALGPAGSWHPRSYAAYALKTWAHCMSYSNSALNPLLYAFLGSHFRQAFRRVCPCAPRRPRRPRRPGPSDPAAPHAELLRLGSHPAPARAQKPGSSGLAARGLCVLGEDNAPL

Row | half-life at 500 ng/ml [1] | EC50 [2] | SMILES
1 | 166 h | 0.05 nM | CNC(=N)NCCC[C@H](NC(=O)[C@H](CC(C)C)NC(=O)NNC(=O)[C@H](Cc1ccccc1)NC(=O)[C@@H](NC(=O)[C@H](CC(N)=O)NC(=O)[C@@H]1C[C@@H](O)CN1C(=O)[C@@H](Cc1ccc(O)cc1)NC(=O)COCCOCCNC(=O)COCCOCCNC(=O)CCCCCCCCCCCCCCCCC(=O)O)[C@@H](C)O)C(=O)N[C@@H](Cc1c[nH]c2ccccc12)C(N)=O [YA-273, C 18 diacid-OEG-OEG-D-Tyr-Hyp-Asn-Thr-Phe-azaGly-Leu-Arg(Me)-Trp-NH2] ({C18 diacid-AEEA-AEEA}-[dY][Hyp]NTF[azaGly]L[Arg(Me)]W-NH2)
2 | 27.5 h | 0.018 nM | CCCCCCCCCCCCCCCC(=O)NCCOCCOCCOCCOCCOCCOCCOCCOCCC(=O)NCC(=O)NCC(=O)N[C@H](Cc1ccc(O)cc1)C(=O)N1C[C@H](O)C[C@H]1C(=O)N[C@@H](CC(N)=O)C(=O)N[C@H](C(=O)N[C@@H](Cc1ccccc1)C(=O)N[C@H](Cc1ccco1)C(=O)N[C@@H](CC(C)C)C(=O)N[C@@H](CCCNC(=N)NC)C(=O)N[C@@H](Cc1c[nH]c2ccccc12)C(N)=O)[C@@H](C)O [YA-288, Palm-PEG 8-Gly-Gly-D-Tyr-Hyp-Asn-Thr-Phe-(D-2Fua)-Leu-Arg(Me)-Trp-NH2] ({Palmitoyl-PEG8}-GG[dY][Hyp]NTF[dAla(2-furyl)]L[Arg(Me)]W-NH2)
3 | 2.73 h | 0.011 nM | CCCCCCCCCCCC(=O)NCCOCCOCCOCCOCCC(=O)NCCOCCOCCOCCOCCC(=O)N[C@H](Cc1ccc(O)cc1)C(=O)N1C[C@H](O)C[C@H]1C(=O)N[C@@H](CC(N)=O)C(=O)N[C@H](C(=O)N[C@@H](Cc1ccccc1)C(=O)NNC(=O)N[C@@H](CC(C)C)C(=O)N[C@@H](CCCNC(=N)NC)C(=O)N[C@@H](Cc1c[nH]c2ccccc12)C(N)=O)[C@@H](C)O [YA-296, Dodecanoyl-PEG4-PEG4-D-Tyr-Hyp-Asn-Thr-Phe-azaGly-Leu-Arg(Me)-Trp-NH2] ({Lauroyl-PEG4-PEG4}-[dY][Hyp]NTF[azaGly]L[Arg(Me)]W-NH2)
4 | 12.7 h | 0.016 nM | CCCCCCCCCCCCCCCC(=O)NCCOCCOCCOCCOCCOCCOCCOCCOCCC(=O)N[C@H](Cc1ccc(O)cc1)C(=O)N1C[C@H](O)C[C@H]1C(=O)N[C@@H](CC(N)=O)C(=O)N[C@H](C(=O)N[C@@H](Cc1ccccc1)C(=O)NNC(=O)N[C@@H](CC(C)C)C(=O)N[C@@H](CCCNC(=N)NC)C(=O)N[C@@H](Cc1c[nH]c2ccccc12)C(N)=O)[C@@H](C)O [YA-298, Palm-PEG8-D-Tyr-Hyp-Asn-Thr-Phe-azaGly-Leu-Arg(Me)-Trp-NH2] ({Palmitoyl-PEG8}-[dY][Hyp]NTF[azaGly]L[Arg(Me)]W-NH2)
5 | 0.29 h | 0.007 nM | CCCCCCCCCCCC(=O)NCCOCCOCCOCCOCCOCCSSCCCC(=O)N[C@H](Cc1ccc(O)cc1)C(=O)N1C[C@H](O)C[C@H]1C(=O)N[C@@H](CC(N)=O)C(=O)N[C@H](C(=O)N[C@@H](Cc1ccccc1)C(=O)NNC(=O)N[C@@H](CC(C)C)C(=O)N[C@@H](CCCNC(=N)NC)C(=O)N[C@@H](Cc1c[nH]c2ccccc12)C(N)=O)[C@@H](C)O [YA-324, Dodecanoyl-(NH-PEG5-CH2CH2S)-(4-thiol-butanoyl)-(D-Tyr)-Hyp-Asn-Thr-Phe-azaG-Leu-Arg(Me)-Trp-NH2] (X5-[dY][Hyp]NTF[azaGly]L[Arg(Me)]W-NH2)
6 | 79.9 h | 0.006 nM | C=CC[C@H](NC(=O)[C@H](Cc1ccccc1)NC(=O)[C@@H](NC(=O)[C@H](CC(N)=O)NC(=O)[C@@H]1C[C@@H](O)CN1C(=O)[C@@H](Cc1ccc(O)cc1)NC(=O)CCOCCOCCOCCOCCOCCOCCOCCOCCNC(=O)CCCCCCCCCCCCCCC)[C@@H](C)O)C(=O)N[C@@H](CC(C)C)C(=O)N[C@@H](CCCNC(=N)NC)C(=O)N[C@@H](Cc1c[nH]c2ccccc12)C(N)=O [YA-360, Palm-PEG8-Gly-Gly-(D-Tyr)-Hyp-Asn-Thr-Phe-A1g-Leu-Arg(Me)-Trp-NH2] ({Palmitoyl-PEG8}-[dY][Hyp]NTF[AllylGly]L[Arg(Me)]W-NH2)

The remaining lines, values behind:

Row | SMILES | half-life at 500 ng/ml [1] | EC50 [2]
7 | CNC(=N)NCCC[C@H](NC(=O)[C@H](CC(C)C)NC(=O)NNC(=O)[C@H](Cc1ccccc1)NC(=O)[C@@H](NC(=O)[C@H](CC(N)=O)NC(=O)[C@@H]1CCCCN1C(=O)[C@@H](Cc1ccc(Cl)cc1Cl)NC(C)=O)[C@@H](C)O)C(=O)N[C@@H](Cc1c[nH]c2ccccc12)C(N)=O [YA-182, Ac-[D-Phe(2,4-DiCl)]—(S-Pip)-Asn-Thr-Phe-azaGly-Leu-Arg(Me)-Trp-NH2] (Ac-[dPhe(2,4-Cl2)][Pip]NTF[azaGly]L[Arg(Me)]W-NH2) | 5.32 h | 0.021 nM
8 | CNC(=N)NCCC[C@H](NC(=O)[C@H](CC(C)C)NC(=O)C1(NC(=O)[C@H](Cc2ccccc2)NC(=O)[C@@H](NC(=O)[C@H](CC(N)=O)NC(=O)[C@@H]2CC(F)(F)CN2C(=O)[C@@H](Cc2ccco2)NC(C)=O)[C@@H](C)O)CCCCC1)C(=O)N[C@@H](Cc1c[nH]c2ccccc12)C(N)=O [YA-201, Ac-(D-2Fua)-Pro(diF)-Asn-Thr-Phe-A6c-Leu-Arg(Me)-Trp-NH2] (Ac-[dAla(2-furyl)][Pro(4,4-F2)]NTF[Ac6c]L[Arg(Me)]W-NH2) | 2.65 h | 0.39 nM
9 | CCCCCCCCCCCCCCCC(=O)NCCOCCOCCOCCOCCOCCOCCOCCOCCC(=O)NCC(=O)NCC(=O)N[C@H](Cc1ccco1)C(=O)N1CC(F)(F)C[C@H]1C(=O)N[C@@H](CC(N)=O)C(=O)N[C@H](C(=O)N[C@@H](Cc1ccccc1)C(=O)NC1(C(=O)N[C@@H](CC(C)C)C(=O)N[C@@H](CCCNC(=N)NC)C(=O)N[C@@H](Cc2c[nH]c3ccccc23)C(N)=O)CCCCC1)[C@@H](C)O [YA-220, Palm-PEG8-Gly-Gly-D-3Fua-Pro(diF)-Asn-Thr-Phe-A6c-Leu-Arg(Me)-Trp-NH2] ({Palmitoyl-PEG8}-GG[dAla(2-furyl)][Pro(4,4-F2)]NTF[Ac6c]L[Arg(Me)]W-NH2) | 59 h | 0.023 nM
10 | CNC(=N)NCCC[C@H](NC(=O)[C@H](CC(C)C)NC(=O)NNC(=O)[C@H](Cc1ccccc1)NC(=O)[C@@H](NC(=O)[C@H](CC(N)=O)NC(=O)[C@@H]1C[C@@H]2CCCC[C@@H]2N1C(=O)[C@@H](Cc1ccc(O)cc1)NC(C)=O)[C@@H](C)O)C(=O)N[C@@H](Cc1c[nH]c2ccccc12)C(N)=O [YA-230, Ac-D-Tyr-Oic-Asn-Thr-Phe-azaGly-Leu-Arg(Me)-Trp-NH2] (Ac-[dY][Oic]NTF[azaGly]L[Arg(Me)]W-NH2) | 3.64 h | 0.04 nM
11 | CCCCCCCCCCCCCCCC(=O)NCCOCCOCCOCCOCCOCCOCCOCCOCCC(=O)NCC(=O)NCC(=O)N[C@H](Cc1ccc(O)cc1)C(=O)N1C[C@H](O)C[C@H]1C(=O)N[C@@H](CC(N)=O)C(=O)N[C@H](C(=O)N[C@@H](Cc1ccccc1)C(=O)NC1(C(=O)N[C@@H](CC(C)C)C(=O)N[C@@H](CCCNC(=N)NC)C(=O)N[C@@H](Cc2c[nH]c3ccccc23)C(N)=O)CCCCC1)[C@@H](C)O [YA-264, Palm-PEG 8-Gly-Gly-D-Tyr-Hyp-Asn-Thr-Phe-A6C-Leu-Arg(Me)-Trp-NH2] ({Palmitoyl-PEG8}-GG[dY][Hyp]NTF[Ac6c]L[Arg(Me)]W-NH2) | 13 h | 0.029 nM
12 | CNC(=N)NCCC[C@H](NC(=O)[C@H](CC(C)C)NC(=O)NNC(=O)[C@H](Cc1ccccc1)NC(=O)[C@@H](NC(=O)[C@H](CC(N)=O)NC(=O)C1(NC(=O)[C@@H](Cc2ccco2)NC(C)=O)CCCCC1)[C@@H](C)O)C(=O)N[C@@H](Cc1c[nH]c2ccccc12)C(N)=O [YA-271, Ac-(D-2Fua)-A6c-Asn-Thr-Phe-azaGly-Leu-Arg(Me)-Trp-NH2] (Ac-[dAla(2-furyl)][Ac6c]NTF[azaGly]L[Arg(Me)]W-NH2) | 15.6 h | 0.025 nM
